{
  "source": "patent US5698411A",
  "about": "“Method for determining activity of enzymes in metabolically active whole cells” (priority 1995, dated 1997)",
  "type_in_all_cases": "cell-based, human",
  "key": {"[1]": {"tested_on": "granulocytes", "experiment": "peptidase activity in leukemia and non-leukemia patients, granulocytes (Table 6C)", "design": "unit not given here", "text": "(§1) Artificial intelligence was used to analyze data of cellular enzyme functions, and determine normal and disease states. Peptidases were used to distinguish leukemia from non-leukemia (output pattern). For input patterns lymphocyte and granulocyte cell types were used with aminopeptidases, cathepsins and dipeptidylpeptidase enzyme activities. In this Example, illustrated in Tables 6A-6C, three normals and three leukemia patients were used as known output patterns for the neural network to learn (in practice, the larger the learning set the more accurate unknown prediction will be). Unknowns were then presented to the learned algorithm as shown in the test case examples. Clinical diagnosis was confirmed by physicians. The trained neural network was able to correctly classify the leukemia from the non-leukemia."}, "[2]": {"tested_on": "lymphocytes", "experiment": "peptidase activity in leukemia and non-leukemia patients, lymphocytes (Table 6C)", "design": "unit not given here", "text": "as §1"}, "[3]": {"tested_on": "monocytes", "experiment": "aberrant enzyme activities in febrile children, monocytes (Table 7)"}, "[4]": {"tested_on": "lymphocytes", "experiment": "aberrant enzyme activities in febrile children, lymphocytes (Table 7)"}, "[5]": {"tested_on": "granulocytes", "experiment": "aberrant enzyme activities in febrile children, granulocytes (Table 7)"}},
  "data": [
    {"compound": "NCC(=O)N1CCC[C@H]1C(=O)Nc1ccc2c(c1)Oc1cc(NC(=O)[C@@H]3CCCN3C(=O)CN)ccc1C21OC(=O)c2ccccc21", "note": "[GP, (H-Gly--Pro)2 Rho .2TFA]", "values": [
      {"measurement": "enzyme activity, Grans", "setting": "[1]; J4 11/21/91 acute leuk.", "value": 10.75},
      {"measurement": "enzyme activity, Grans", "setting": "[1]; J4 12/2/91 A L", "value": 11.08},
      {"measurement": "enzyme activity, Grans", "setting": "[1]; J4 12/3/91 acute leuk.", "value": 1.28},
      {"measurement": "enzyme activity, Grans", "setting": "[1]; J5 11/27/91 A M L", "value": 8.95},
      {"measurement": "enzyme activity, Grans", "setting": "[1]; J19 11/27/91 C L L", "value": 1.39},
      {"measurement": "enzyme activity, Grans", "setting": "[1]; J22 12/2/91 A M L", "value": 13.98},
      {"measurement": "enzyme activity, Grans", "setting": "[1]; J22 12/9/91 A M L", "value": 11.52},
      {"measurement": "enzyme activity, Grans", "setting": "[1]; N191 normal", "value": 11.20},
      {"measurement": "enzyme activity, Grans", "setting": "[1]; N192 normal", "value": 11.22},
      {"measurement": "enzyme activity, Grans", "setting": "[1]; N193 normal", "value": 8.87},
      {"measurement": "enzyme activity, Grans", "setting": "[1]; N194 normal", "value": 12.49},
      {"measurement": "enzyme activity, Grans", "setting": "[1]; N195 normal", "value": 13.31},
      {"measurement": "enzyme activity, Grans", "setting": "[1]; N197 normal", "value": 15.85},
      {"measurement": "enzyme activity, Grans", "setting": "[1]; N199 normal", "value": 13.41},
      {"measurement": "enzyme activity, Grans", "setting": "[1]; N200 normal", "value": 12.74},
      {"measurement": "enzyme activity, Grans", "setting": "[1]; N201 normal", "value": 15.92},
      {"measurement": "enzyme activity, Grans", "setting": "[1]; N202 normal", "value": 14.44},
      {"measurement": "enzyme activity, Grans", "setting": "[1]; N206 normal", "value": 17.96},
      {"measurement": "enzyme activity, Grans", "setting": "[1]; P68 tachycardia", "value": 16.08},
      {"measurement": "enzyme activity, Grans", "setting": "[1]; P69 pancreatic CA", "value": 16.21},
      {"measurement": "enzyme activity, Grans", "setting": "[1]; P70 cirrhosis/hemobilia", "value": 16.42},
      {"measurement": "enzyme activity, Grans", "setting": "[1]; P71 ac. pyelonephritis", "value": 11.07},
      {"measurement": "enzyme activity, Lymphs", "setting": "[2]; J4 11/21/91 acute leuk.", "value": 2.72},
      {"measurement": "enzyme activity, Lymphs", "setting": "[2]; J4 12/2/91 A L", "value": 3.80},
      {"measurement": "enzyme activity, Lymphs", "setting": "[2]; J4 12/3/91 acute leuk.", "value": 4.17},
      {"measurement": "enzyme activity, Lymphs", "setting": "[2]; J5 11/27/91 A M L", "value": 3.40},
      {"measurement": "enzyme activity, Lymphs", "setting": "[2]; J19 11/27/91 C L L", "value": 1.73},
      {"measurement": "enzyme activity, Lymphs", "setting": "[2]; J22 12/2/91 A M L", "value": 1.73},
      {"measurement": "enzyme activity, Lymphs", "setting": "[2]; J22 12/9/91 A M L", "value": 3.01},
      {"measurement": "enzyme activity, Lymphs", "setting": "[2]; N191 normal", "value": 4.14},
      {"measurement": "enzyme activity, Lymphs", "setting": "[2]; N192 normal", "value": 3.00},
      {"measurement": "enzyme activity, Lymphs", "setting": "[2]; N193 normal", "value": 3.00},
      {"measurement": "enzyme activity, Lymphs", "setting": "[2]; N194 normal", "value": 5.22},
      {"measurement": "enzyme activity, Lymphs", "setting": "[2]; N195 normal", "value": 5.24},
      {"measurement": "enzyme activity, Lymphs", "setting": "[2]; N197 normal", "value": 5.97},
      {"measurement": "enzyme activity, Lymphs", "setting": "[2]; N199 normal", "value": 5.55},
      {"measurement": "enzyme activity, Lymphs", "setting": "[2]; N200 normal", "value": 5.38},
      {"measurement": "enzyme activity, Lymphs", "setting": "[2]; N201 normal", "value": 6.53},
      {"measurement": "enzyme activity, Lymphs", "setting": "[2]; N202 normal", "value": 6.61},
      {"measurement": "enzyme activity, Lymphs", "setting": "[2]; N206 normal", "value": 7.09},
      {"measurement": "enzyme activity, Lymphs", "setting": "[2]; P68 tachycardia", "value": 5.92},
      {"measurement": "enzyme activity, Lymphs", "setting": "[2]; P69 pancreatic CA", "value": 6.80},
      {"measurement": "enzyme activity, Lymphs", "setting": "[2]; P70 cirrhosis/hemobilia", "value": 6.68},
      {"measurement": "enzyme activity, Lymphs", "setting": "[2]; P71 ac. pyelonephritis", "value": 3.55}
    ]},
    {"compound": "C[C@H](NC(=O)OCc1ccccc1)C(=O)NCC(=O)Nc1ccc2c(c1)Oc1cc(NC(=O)CNC(=O)[C@H](C)NC(=O)OCc3ccccc3)ccc1C21OC(=O)c2ccccc21", "note": "[Z-AG, (Z-Ala--Gly)2 Rho 110]", "values": [
      {"measurement": "aberrant enzyme activity, MONOS", "setting": "[3]; P89 Viral Stomatitis", "value": ".smallcircle."},
      {"measurement": "aberrant enzyme activity, MONOS", "setting": "[3]; P95 Viral Syndrome", "value": ".smallcircle."},
      {"measurement": "aberrant enzyme activity, MONOS", "setting": "[3]; P96 Viral Syndrome", "value": ".smallcircle."},
      {"measurement": "aberrant enzyme activity, MONOS", "setting": "[3]; P97 Pyelonephritis", "value": ".smallcircle."},
      {"measurement": "aberrant enzyme activity, MONOS", "setting": "[3]; P99 Viral Syndrome", "value": ".smallcircle."},
      {"measurement": "aberrant enzyme activity, MONOS", "setting": "[3]; P102 UTI", "value": ".smallcircle."},
      {"measurement": "aberrant enzyme activity, MONOS", "setting": "[3]; P103 Viral Syndrome", "value": ".smallcircle."},
      {"measurement": "aberrant enzyme activity, LYMPHS", "setting": "[4]; P99 Viral Syndrome", "value": ".smallcircle."},
      {"measurement": "aberrant enzyme activity, LYMPHS", "setting": "[4]; P102 UTI", "value": ".smallcircle."},
      {"measurement": "aberrant enzyme activity, LYMPHS", "setting": "[4]; P103 Viral Syndrome", "value": ".smallcircle."},
      {"measurement": "aberrant enzyme activity, GRANS", "setting": "[5]; P89 Viral Stomatitis", "value": ".smallcircle."},
      {"measurement": "aberrant enzyme activity, GRANS", "setting": "[5]; P92 Adenitis", "value": ".smallcircle."},
      {"measurement": "aberrant enzyme activity, GRANS", "setting": "[5]; P95 Viral Syndrome", "value": ".smallcircle."},
      {"measurement": "aberrant enzyme activity, GRANS", "setting": "[5]; P96 Viral Syndrome", "value": ".smallcircle."},
      {"measurement": "aberrant enzyme activity, GRANS", "setting": "[5]; P97 Pyelonephritis", "value": ".smallcircle."},
      {"measurement": "aberrant enzyme activity, GRANS", "setting": "[5]; P99 Viral Syndrome", "value": ".smallcircle."},
      {"measurement": "aberrant enzyme activity, GRANS", "setting": "[5]; P102 UTI", "value": ".smallcircle."},
      {"measurement": "aberrant enzyme activity, GRANS", "setting": "[5]; P103 Viral Syndrome", "value": ".smallcircle."}
    ]},
    {"compound": "dichlorofluorescein [reference compound]", "values": [
      {"measurement": "aberrant enzyme activity, MONOS", "setting": "[3]; P88 Enteritis", "value": ".smallcircle."},
      {"measurement": "aberrant enzyme activity, MONOS", "setting": "[3]; P89 Viral Stomatitis", "value": "+ (>0.25 Increase over normal range)"},
      {"measurement": "aberrant enzyme activity, MONOS", "setting": "[3]; P92 Adenitis", "value": "+ (>0.25 Increase over normal range)"},
      {"measurement": "aberrant enzyme activity, MONOS", "setting": "[3]; P95 Viral Syndrome", "value": "+ (>0.25 Increase over normal range)"},
      {"measurement": "aberrant enzyme activity, MONOS", "setting": "[3]; P96 Viral Syndrome", "value": "+ (>0.25 Increase over normal range)"},
      {"measurement": "aberrant enzyme activity, MONOS", "setting": "[3]; P97 Pyelonephritis", "value": "+ (>0.25 Increase over normal range)"},
      {"measurement": "aberrant enzyme activity, MONOS", "setting": "[3]; P99 Viral Syndrome", "value": ".smallcircle."},
      {"measurement": "aberrant enzyme activity, MONOS", "setting": "[3]; P101 Fever -- Unknown Origin", "value": "+ (>0.25 Increase over normal range)"},
      {"measurement": "aberrant enzyme activity, MONOS", "setting": "[3]; P102 UTI", "value": ".smallcircle."},
      {"measurement": "aberrant enzyme activity, MONOS", "setting": "[3]; P103 Viral Syndrome", "value": "+ (>0.25 Increase over normal range)"},
      {"measurement": "aberrant enzyme activity, LYMPHS", "setting": "[4]; P88 Enteritis", "value": ".smallcircle."},
      {"measurement": "aberrant enzyme activity, LYMPHS", "setting": "[4]; P89 Viral Stomatitis", "value": "+ (>0.25 Increase over normal range)"},
      {"measurement": "aberrant enzyme activity, LYMPHS", "setting": "[4]; P92 Adenitis", "value": "+ (>0.25 Increase over normal range)"},
      {"measurement": "aberrant enzyme activity, LYMPHS", "setting": "[4]; P95 Viral Syndrome", "value": "+ (>0.25 Increase over normal range)"},
      {"measurement": "aberrant enzyme activity, LYMPHS", "setting": "[4]; P96 Viral Syndrome", "value": "+ (>0.25 Increase over normal range)"},
      {"measurement": "aberrant enzyme activity, LYMPHS", "setting": "[4]; P97 Pyelonephritis", "value": "+ (>0.25 Increase over normal range)"},
      {"measurement": "aberrant enzyme activity, LYMPHS", "setting": "[4]; P99 Viral Syndrome", "value": ".smallcircle."},
      {"measurement": "aberrant enzyme activity, LYMPHS", "setting": "[4]; P101 Fever -- Unknown Origin", "value": "+ (>0.25 Increase over normal range)"},
      {"measurement": "aberrant enzyme activity, LYMPHS", "setting": "[4]; P102 UTI", "value": ".smallcircle."},
      {"measurement": "aberrant enzyme activity, LYMPHS", "setting": "[4]; P103 Viral Syndrome", "value": "+ (>0.25 Increase over normal range)"},
      {"measurement": "aberrant enzyme activity, GRANS", "setting": "[5]; P88 Enteritis", "value": ".smallcircle."},
      {"measurement": "aberrant enzyme activity, GRANS", "setting": "[5]; P89 Viral Stomatitis", "value": "+ (>0.25 Increase over normal range)"},
      {"measurement": "aberrant enzyme activity, GRANS", "setting": "[5]; P92 Adenitis", "value": "+ (>0.25 Increase over normal range)"},
      {"measurement": "aberrant enzyme activity, GRANS", "setting": "[5]; P95 Viral Syndrome", "value": "+ (>0.25 Increase over normal range)"},
      {"measurement": "aberrant enzyme activity, GRANS", "setting": "[5]; P96 Viral Syndrome", "value": "+ (>0.25 Increase over normal range)"},
      {"measurement": "aberrant enzyme activity, GRANS", "setting": "[5]; P97 Pyelonephritis", "value": "+ (>0.25 Increase over normal range)"},
      {"measurement": "aberrant enzyme activity, GRANS", "setting": "[5]; P99 Viral Syndrome", "value": ".smallcircle."},
      {"measurement": "aberrant enzyme activity, GRANS", "setting": "[5]; P101 Fever -- Unknown Origin", "value": "+ (>0.25 Increase over normal range)"},
      {"measurement": "aberrant enzyme activity, GRANS", "setting": "[5]; P102 UTI", "value": ".smallcircle."},
      {"measurement": "aberrant enzyme activity, GRANS", "setting": "[5]; P103 Viral Syndrome", "value": "+ (>0.25 Increase over normal range)"}
    ]}
  ]
}
